# Reference: US20090299044A1 (priority 2006, published 2009)
# Bridge positions count the residues as written; N and C are the ends. Square brackets hold non-standard residues; d marks the D form. Peptide text beside a SMILES is read from it. 1Nal = N[C@@H](Cc1cccc2ccccc12)C(=O)O
# Columns and labels:
# human Kv1.3 (CHO) = target: T1, human Kv1.3 (CHO) (Homo sapiens, UniProt P22001); assay: cell-based
# T1 construct: expressed in transfected cells; host or cells: CHO
# human Kv1.1 (HEK293) = target: T2, human Kv1.1 (HEK293) (Homo sapiens, UniProt Q09470); assay: cell-based
# T2 construct: expressed in transfected cells; host or cells: HEK293
# T2 sequence (Q09470 whole entry): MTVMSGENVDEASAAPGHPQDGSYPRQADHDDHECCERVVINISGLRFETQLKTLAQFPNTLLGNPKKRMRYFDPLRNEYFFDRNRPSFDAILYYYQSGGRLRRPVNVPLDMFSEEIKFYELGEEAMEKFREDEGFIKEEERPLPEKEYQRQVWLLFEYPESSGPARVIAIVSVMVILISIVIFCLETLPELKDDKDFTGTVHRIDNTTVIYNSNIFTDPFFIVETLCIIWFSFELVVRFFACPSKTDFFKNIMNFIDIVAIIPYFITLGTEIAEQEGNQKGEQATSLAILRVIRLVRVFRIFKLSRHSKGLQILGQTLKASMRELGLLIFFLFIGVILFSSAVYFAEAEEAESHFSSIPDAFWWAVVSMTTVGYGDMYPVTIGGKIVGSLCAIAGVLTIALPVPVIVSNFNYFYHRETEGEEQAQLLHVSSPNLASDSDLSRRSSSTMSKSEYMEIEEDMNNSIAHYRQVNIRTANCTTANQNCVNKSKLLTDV
# T1 sequence (P22001 whole entry): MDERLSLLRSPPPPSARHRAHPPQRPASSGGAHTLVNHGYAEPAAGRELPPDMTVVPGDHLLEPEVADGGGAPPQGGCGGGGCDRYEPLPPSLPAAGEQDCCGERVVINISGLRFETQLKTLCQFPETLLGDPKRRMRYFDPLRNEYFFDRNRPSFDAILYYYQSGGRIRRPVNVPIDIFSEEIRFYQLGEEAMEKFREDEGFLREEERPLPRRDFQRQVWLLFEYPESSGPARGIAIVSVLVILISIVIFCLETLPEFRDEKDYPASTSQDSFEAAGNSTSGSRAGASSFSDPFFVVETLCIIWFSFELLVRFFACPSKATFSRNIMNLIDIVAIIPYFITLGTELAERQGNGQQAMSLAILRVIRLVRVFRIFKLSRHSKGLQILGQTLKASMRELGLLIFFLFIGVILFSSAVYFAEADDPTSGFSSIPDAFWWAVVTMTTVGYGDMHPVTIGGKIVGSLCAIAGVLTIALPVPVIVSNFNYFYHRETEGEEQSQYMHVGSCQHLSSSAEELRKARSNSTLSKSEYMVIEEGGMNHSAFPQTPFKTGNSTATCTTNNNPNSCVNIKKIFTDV
Structure (SMILES),IC50 (human Kv1.3 (CHO)),IC50 (human Kv1.1 (HEK293))
"CC[C@H](C)[C@@H]1NC(=O)[C@H](CCCCN)NC(=O)[C@@H](NC(=O)[C@H](CCCCN)NC(=O)[C@@H](NC(=O)[C@H](CC(N)=O)NC(=O)[C@@H](NC(=O)[C@@H](NC(=O)[C@@H](NC(=O)CN)C(C)C)[C@@H](C)CC)[C@@H](C)CC)C(C)C)CSSC[C@@H]2NC(=O)[C@H](CCCCN)NC(=O)CNC(=O)[C@H](Cc3ccccc3)NC(=O)[C@H](CCCNC(=N)N)NC(=O)[C@H](CCSC)NC(=O)CNC(=O)[C@H](C)NC(=O)[C@H](CCCCN)NC(=O)[C@H](CCCCN)NC(=O)[C@@H]3CSSC[C@@H](C(=O)N[C@H](C(=O)N4CCC[C@H]4C(=O)N[C@@H](CCCNC(=N)N)C(=O)O)[C@@H](C)O)NC(=O)[C@H](Cc4c[nH]cn4)NC(=O)[C@H](CSSC[C@H](NC(=O)[C@H](CCC(N)=O)NC(=O)[C@H](CCCNC(=N)N)NC(=O)[C@H](CO)NC1=O)C(=O)N[C@@H](CC(C)C)C(=O)N[C@@H](CCC(=O)O)C(=O)N1CCC[C@H]1C(=O)N3)NC(=O)[C@H](CCCCN)NC(=O)CNC(=O)[C@H](CC(N)=O)NC(=O)[C@H](CCSC)NC2=O [K38R] (H-GVIINVKCKISRQCLEPCKKAGMRFGKCMNGKCHCTPR-OH; disulfide 8-28, 14-33, 18-35)",15 pM,1.84 pM
"CC[C@H](C)[C@@H]1NC(=O)[C@H](CCCCN)NC(=O)[C@@H](NC(=O)[C@H](CCCCN)NC(=O)[C@@H](NC(=O)[C@H](CC(N)=O)NC(=O)[C@@H](NC(=O)[C@@H](NC(=O)[C@@H](NC(=O)CN)C(C)C)[C@@H](C)CC)[C@@H](C)CC)C(C)C)CSSC[C@@H]2NC(=O)[C@H](CCCCN)NC(=O)CNC(=O)[C@H](Cc3ccccc3)NC(=O)[C@H](CCCNC(=N)N)NC(=O)[C@H](CCSC)NC(=O)CNC(=O)[C@H](C)NC(=O)[C@H](CCCCN)NC(=O)[C@H](CCCCN)NC(=O)[C@@H]3CSSC[C@@H](C(=O)N[C@H](C(=O)N4CCC[C@H]4C(=O)N[C@@H](CCCCN)C(=O)O)[C@@H](C)O)NC(=O)[C@H](Cc4c[nH]cn4)NC(=O)[C@H](CSSC[C@H](NC(=O)[C@H](CCC(N)=O)NC(=O)[C@H](CCCNC(=N)N)NC(=O)[C@H](CO)NC1=O)C(=O)N[C@@H](C)C(=O)N[C@@H](CCC(=O)O)C(=O)N1CCC[C@H]1C(=O)N3)NC(=O)[C@H](CCCCN)NC(=O)CNC(=O)[C@H](CC(N)=O)NC(=O)[C@H](CCSC)NC2=O [L15A] (H-GVIINVKCKISRQCAEPCKKAGMRFGKCMNGKCHCTPK-OH; disulfide 8-28, 14-33, 18-35)",43.1 pM,15 pM
"CC[C@H](C)[C@@H]1NC(=O)[C@H](CCCCN)NC(=O)[C@@H](NC(=O)[C@H](CCCCN)NC(=O)[C@@H](NC(=O)[C@H](CC(N)=O)NC(=O)[C@@H](NC(=O)[C@@H](NC(=O)[C@@H](NC(=O)CN)C(C)C)[C@@H](C)CC)[C@@H](C)CC)C(C)C)CSSC[C@@H]2NC(=O)[C@H](CCCCN)NC(=O)CNC(=O)[C@H](Cc3ccccc3)NC(=O)[C@H](CCCNC(=N)N)NC(=O)[C@H](CCSC)NC(=O)CNC(=O)[C@H](C)NC(=O)[C@H](CCCCN)NC(=O)[C@H](CCCCN)NC(=O)[C@@H]3CSSC[C@@H](C(=O)N[C@H](C(=O)N4CCC[C@H]4C(=O)N[C@@H](CCCCN)C(=O)O)[C@@H](C)O)NC(=O)[C@H](Cc4c[nH]cn4)NC(=O)[C@H](CSSC[C@H](NC(=O)[C@H](CCC(N)=O)NC(=O)[C@H](CCCNC(=N)N)NC(=O)[C@H](CO)NC1=O)C(=O)N[C@@H](Cc1cccc4ccccc14)C(=O)N[C@@H](CCC(=O)O)C(=O)N1CCC[C@H]1C(=O)N3)NC(=O)[C@H](CCCCN)NC(=O)CNC(=O)[C@H](CC(N)=O)NC(=O)[C@H](CCSC)NC2=O [L15Nal] (H-GVIINVKCKISRQC[1Nal]EPCKKAGMRFGKCMNGKCHCTPK-OH; disulfide 8-28, 14-33, 18-35)",17.8 pM,< 1.52 pM
"CC[C@H](C)[C@@H]1NC(=O)[C@H](CCCCN)NC(=O)[C@@H](NC(=O)[C@H](CCCCN)NC(=O)[C@@H](NC(=O)[C@H](CC(N)=O)NC(=O)[C@@H](NC(=O)[C@@H](NC(=O)[C@@H](NC(=O)CN)C(C)C)[C@@H](C)CC)[C@@H](C)CC)C(C)C)CSSC[C@@H]2NC(=O)[C@H](CCCCN)NC(=O)CNC(=O)[C@H](Cc3ccccc3)NC(=O)[C@H](CCCNC(=N)N)NC(=O)[C@H](CCSC)NC(=O)CNC(=O)[C@H](C)NC(=O)[C@H](CCCCN)NC(=O)[C@H](CCCCN)NC(=O)[C@@H]3CSSC[C@@H](C(=O)N[C@H](C(=O)N4CCC[C@H]4C(=O)N[C@@H](CCCCN)C(=O)O)[C@@H](C)O)NC(=O)[C@H](Cc4c[nH]cn4)NC(=O)[C@H](CSSC[C@H](NC(=O)[C@H](CCC(N)=O)NC(=O)[C@H](CCCNC(=N)N)NC(=O)[C@H](CO)NC1=O)C(=O)N[C@@H](CCCNC(=N)N)C(=O)N[C@@H](CCC(=O)O)C(=O)N1CCC[C@H]1C(=O)N3)NC(=O)[C@H](CCCCN)NC(=O)CNC(=O)[C@H](CC(N)=O)NC(=O)[C@H](CCSC)NC2=O [L15R] (H-GVIINVKCKISRQCREPCKKAGMRFGKCMNGKCHCTPK-OH; disulfide 8-28, 14-33, 18-35)",13.7 pM,2.16 pM
"CC[C@H](C)[C@@H]1NC(=O)[C@H](CCCCN)NC(=O)[C@@H](NC(=O)[C@H](CCCCN)NC(=O)[C@@H](NC(=O)[C@H](CC(N)=O)NC(=O)[C@@H](NC(=O)[C@@H](NC(=O)[C@@H](NC(=O)CN)C(C)C)[C@@H](C)CC)[C@@H](C)CC)C(C)C)CSSC[C@@H]2NC(=O)[C@H](CCCCN)NC(=O)CNC(=O)[C@H](Cc3ccccc3)NC(=O)[C@H](CCCNC(=N)N)NC(=O)[C@H](C)NC(=O)CNC(=O)[C@H](C)NC(=O)[C@H](CCCCN)NC(=O)[C@H](CCCCN)NC(=O)[C@@H]3CSSC[C@@H](C(=O)N[C@H](C(=O)N4CCC[C@H]4C(=O)N[C@@H](CCCCN)C(=O)O)[C@@H](C)O)NC(=O)[C@H](Cc4c[nH]cn4)NC(=O)[C@H](CSSC[C@H](NC(=O)[C@H](CCC(N)=O)NC(=O)[C@H](CCCNC(=N)N)NC(=O)[C@H](CO)NC1=O)C(=O)N[C@@H](CC(C)C)C(=O)N[C@@H](CCC(=O)O)C(=O)N1CCC[C@H]1C(=O)N3)NC(=O)[C@H](CCCCN)NC(=O)CNC(=O)[C@H](CC(N)=O)NC(=O)[C@H](CCSC)NC2=O [M23A] (H-GVIINVKCKISRQCLEPCKKAGARFGKCMNGKCHCTPK-OH; disulfide 8-28, 14-33, 18-35)",71.4 pM,38.6 pM
"CC[C@H](C)[C@@H]1NC(=O)[C@H](CCCCN)NC(=O)[C@@H](NC(=O)[C@H](CCCCN)NC(=O)[C@@H](NC(=O)[C@H](CC(N)=O)NC(=O)[C@@H](NC(=O)[C@@H](NC(=O)[C@@H](NC(=O)CN)C(C)C)[C@@H](C)CC)[C@@H](C)CC)C(C)C)CSSC[C@@H]2NC(=O)[C@H](CCCCN)NC(=O)CNC(=O)[C@H](Cc3ccccc3)NC(=O)[C@H](CCCNC(=N)N)NC(=O)[C@H](CCC(=O)O)NC(=O)CNC(=O)[C@H](C)NC(=O)[C@H](CCCCN)NC(=O)[C@H](CCCCN)NC(=O)[C@@H]3CSSC[C@@H](C(=O)N[C@H](C(=O)N4CCC[C@H]4C(=O)N[C@@H](CCCCN)C(=O)O)[C@@H](C)O)NC(=O)[C@H](Cc4c[nH]cn4)NC(=O)[C@H](CSSC[C@H](NC(=O)[C@H](CCC(N)=O)NC(=O)[C@H](CCCNC(=N)N)NC(=O)[C@H](CO)NC1=O)C(=O)N[C@@H](CC(C)C)C(=O)N[C@@H](CCC(=O)O)C(=O)N1CCC[C@H]1C(=O)N3)NC(=O)[C@H](CCCCN)NC(=O)CNC(=O)[C@H](CC(N)=O)NC(=O)[C@H](CCSC)NC2=O [M23E] (H-GVIINVKCKISRQCLEPCKKAGERFGKCMNGKCHCTPK-OH; disulfide 8-28, 14-33, 18-35)",24.3 pM,10.4 pM
"CC[C@H](C)[C@@H]1NC(=O)[C@H](CCCCN)NC(=O)[C@@H](NC(=O)[C@H](CCCCN)NC(=O)[C@@H](NC(=O)[C@H](CC(N)=O)NC(=O)[C@@H](NC(=O)[C@@H](NC(=O)[C@@H](NC(=O)CN)C(C)C)[C@@H](C)CC)[C@@H](C)CC)C(C)C)CSSC[C@@H]2NC(=O)[C@H](CCCCN)NC(=O)CNC(=O)[C@H](Cc3ccccc3)NC(=O)[C@H](CCCNC(=N)N)NC(=O)[C@H](CCCNC(=N)N)NC(=O)CNC(=O)[C@H](C)NC(=O)[C@H](CCCCN)NC(=O)[C@H](CCCCN)NC(=O)[C@@H]3CSSC[C@@H](C(=O)N[C@H](C(=O)N4CCC[C@H]4C(=O)N[C@@H](CCCCN)C(=O)O)[C@@H](C)O)NC(=O)[C@H](Cc4c[nH]cn4)NC(=O)[C@H](CSSC[C@H](NC(=O)[C@H](CCC(N)=O)NC(=O)[C@H](CCCNC(=N)N)NC(=O)[C@H](CO)NC1=O)C(=O)N[C@@H](CC(C)C)C(=O)N[C@@H](CCC(=O)O)C(=O)N1CCC[C@H]1C(=O)N3)NC(=O)[C@H](CCCCN)NC(=O)CNC(=O)[C@H](CC(N)=O)NC(=O)[C@H](CCSC)NC2=O [M23R] (H-GVIINVKCKISRQCLEPCKKAGRRFGKCMNGKCHCTPK-OH; disulfide 8-28, 14-33, 18-35)",12.3 pM,2.01 pM
"CC[C@H](C)[C@@H]1NC(=O)[C@H](CCCCN)NC(=O)[C@@H](NC(=O)[C@H](CCCCN)NC(=O)[C@@H](NC(=O)[C@H](CC(N)=O)NC(=O)[C@@H](NC(=O)[C@@H](NC(=O)[C@@H](NC(=O)CN)C(C)C)[C@@H](C)CC)[C@@H](C)CC)C(C)C)CSSC[C@@H]2NC(=O)[C@H](CCCCN)NC(=O)CNC(=O)[C@H](Cc3ccccc3)NC(=O)[C@H](CCCNC(=N)N)NC(=O)[C@H](CCSC)NC(=O)CNC(=O)[C@H](C)NC(=O)[C@H](CCCCN)NC(=O)[C@H](CCCCN)NC(=O)[C@@H]3CSSC[C@@H](C(=O)N[C@H](C(=O)N4CCC[C@H]4C(=O)N[C@@H](CCCCN)C(=O)O)[C@@H](C)O)NC(=O)[C@H](Cc4c[nH]cn4)NC(=O)[C@H](CSSC[C@H](NC(=O)[C@H](CCC(N)=O)NC(=O)[C@H](CCCNC(=N)N)NC(=O)[C@H](CO)NC1=O)C(=O)N[C@@H](CC(C)C)C(=O)N[C@@H](CCC(=O)O)C(=O)N1CCC[C@H]1C(=O)N3)NC(=O)[C@H](CCCCN)NC(=O)CNC(=O)[C@H](CC(N)=O)NC(=O)[C@H](CCC(=O)O)NC2=O [M29E] (H-GVIINVKCKISRQCLEPCKKAGMRFGKCENGKCHCTPK-OH; disulfide 8-28, 14-33, 18-35)",> 3330 pM,> 3330 pM
